Converted amounts (≈) assume the structure as drawn. Blank lines part the entries; values can stand above or below the compound they belong to. The source made the active and inactive calls. The rule behind the calls is not given here. Starred links: 1 amine or outer side, 2 acyl side, 3 side chain; linkers in the order of their positions; H or OH if unused. Non-standard residues stand in square brackets, D forms with d. Residues, ends and D or L forms follow the SMILES beside them. *: point of attachment. HN(CH2CH2O)5CH2CH2NH = C(COCCOCCOCCOCCOCCN[*:2])N[*:1]; X1 = O=C(c1ccc(OP(=O)(O)O)cc1)*; Spermine = NCCCNCCCCNCCCN*; Aib = CC(C)(N)C(=O)O
Experiments:
[1] = (§1) Ionophoric activity across large unilamellar vesicles containing 95:5 egg yolk phosphatidylcholine and phosphatidylglycerol assessed as apparent first order rate constant for H+ transport at 1% of total concentration of lipids at 25 degC measured after 20 mins by HPTS-based fluorescence assay (reference value: 2 x 10^-4/s); format: ADME
[2] = Ionophoric activity across large unilamellar vesicles containing 95:5 egg yolk phosphatidylcholine and phosphatidylglycerol assessed as apparent first order rate constant for Na+ transport at 1% of total concentration of lipids at 25 degC measured every 30 mins over 14 hrs by 23Na+ NMR analysis; format: ADME
[3] = as §1, with “1.5%” for “1%”; format: ADME
[4] = as §1, with “2%” for “1%”; format: ADME
[5] = as §1, with “2.5%” for “1%”; format: ADME
[6] = as §1, with “3%” for “1%”; format: ADME
[7] = Induction of lysis of large unilamellar vesicles containing 95:5 egg yolk phosphatidylcholine and phosphatidylglycerol assessed as calcein release at 0.22 mM treated at 400 to 1600 secs by fluorometric analysis; format: functional
Cryptococcus neoformans = experiment: Antifungal activity against Cryptococcus neoformans clinical isolate after 48 hrs by broth microdilution method; format: functional
Candida albicans = experiment: Antifungal activity against Candida albicans clinical isolate after 48 hrs by broth microdilution method; format: functional
Staphylococcus aureus [8] = experiment: Antibacterial activity against methicillin-resistant Staphylococcus aureus 16 clinical isolate after 24 hrs by broth microdilution method; format: functional; settings: Staphylococcus aureus, 16, 24 h
Staphylococcus aureus [9] = experiment: Antibacterial activity against Staphylococcus aureus 34 clinical isolate after 24 hrs by broth microdilution method; format: functional; settings: Staphylococcus aureus, 34, 24 h
Pseudomonas aeruginosa = experiment: Antibacterial activity against Pseudomonas aeruginosa ATCC 27853 after 24 hrs by broth microdilution method; format: functional; settings: ATCC 27853, 24 h
Escherichia coli [10] = experiment: Antibacterial activity against Escherichia coli ATCC 25922 after 24 hrs by broth microdilution method; format: functional; settings: ATCC 25922, 24 h
Escherichia coli [11] = experiment: Induction of outer membrane permeabilization of Escherichia coli ML-35 pYC constitutively expressing cytoplasmic beta-galactosidase/periplasmic beta-lastamase assessed as CENTA hydrolysis at 64 uM by microplate reader analysis; format: functional, organism-based
Escherichia coli [12] = experiment: Induction of inner membrane permeabilization of Escherichia coli ML-35 pYC constitutively expressing cytoplasmic beta-galactosidase/periplasmic beta-lastamase assessed as Gal-ONp hydrolysis at 64 uM by microplate reader analysis; format: functional, organism-based
[13] = as §1, with “0.5%” for “1%”; format: ADME
Escherichia coli [14] = experiment: Induction of outer membrane permeabilization of Escherichia coli ML-35 pYC constitutively expressing cytoplasmic beta-galactosidase/periplasmic beta-lastamase assessed as CENTA hydrolysis at 256 uM by microplate reader analysis; format: functional, organism-based
Escherichia coli [15] = experiment: Induction of inner membrane permeabilization of Escherichia coli ML-35 pYC constitutively expressing cytoplasmic beta-galactosidase/periplasmic beta-lastamase assessed as Gal-ONp hydrolysis at 256 uM by microplate reader analysis; format: functional, organism-based
[16] = Ionophoric activity across large unilamellar vesicles containing 95:5 egg yolk phosphatidylcholine and phosphatidylglycerol assessed as apparent first order rate constant for Na+ transport at 0.2% of total concentration of lipids at 25 degC measured every 30 mins over 14 hrs by 23Na+ NMR analysis; format: ADME
[17] = Ionophoric activity across large unilamellar vesicles containing 95:5 egg yolk phosphatidylcholine and phosphatidylglycerol assessed as apparent first order rate constant for Na+ transport at 0.5% of total concentration of lipids at 25 degC measured every 30 mins over 14 hrs by 23Na+ NMR analysis; format: ADME
[18] = Ionophoric activity across large unilamellar vesicles containing 95:5 egg yolk phosphatidylcholine and phosphatidylglycerol assessed as apparent first order rate constant for Na+ transport at 1.5% of total concentration of lipids at 25 degC measured every 30 mins over 14 hrs by 23Na+ NMR analysis; format: ADME
[19] = Ionophoric activity across large unilamellar vesicles containing 95:5 egg yolk phosphatidylcholine and phosphatidylglycerol assessed as apparent first order rate constant for Na+ transport at 2% of total concentration of lipids at 25 degC measured every 30 mins over 14 hrs by 23Na+ NMR analysis; format: ADME
[20] = Ionophoric activity across large unilamellar vesicles containing 95:5 egg yolk phosphatidylcholine and phosphatidylglycerol assessed as apparent first order rate constant for Na+ transport at 3% of total concentration of lipids at 25 degC measured every 30 mins over 14 hrs by 23Na+ NMR analysis; format: ADME

Activity [1]: Active | Activity [2]: Active
SMILES: C[C@@H]1[C@H](O)[C@@H](C)/C=C/C=C/C=C/C=C/C=C/C=C/C=C/[C@H](O[C@@H]2O[C@H](C)[C@@H](O)[C@H](N)[C@@H]2O)C[C@@H]2O[C@](O)(C[C@@H](O)C[C@@H](O)[C@H](O)CC[C@@H](O)C[C@@H](O)CC(=O)O[C@H]1C)C[C@H](O)[C@H]2C(=O)O [AMPHOTERICIN B]

SMILES: CC(C)(NC(=O)c1ccc(OP(=O)(O)O)cc1)C(=O)NC(C)(C)C(=O)NC(C)(C)C(=O)NC(C)(C)C(=O)NC(C)(C)C(=O)NC(C)(C)C(=O)NC(C)(C)C(=O)NC(C)(C)C(=O)NCCCNCCCCNCCCN (X1-[Aib][Aib][Aib][Aib][Aib][Aib][Aib][Aib]-Spermine)
Kapp [1]: 5.24 ×10⁻³ /s | Kapp [3]: 1.73 ×10⁻² /s | Kapp [4]: 1.98 ×10⁻² /s | Kapp [5]: 3.62 ×10⁻² /s | Kapp [6]: 6.77 ×10⁻² /s | Activity [7]: inactive | MIC (Cryptococcus neoformans): 16 µM (≈ 17.3 µg/mL) | MIC (Candida albicans): 32 µM (≈ 34.7 µg/mL) | MIC (Staphylococcus aureus [8]): 32 µM (≈ 34.7 µg/mL) | MIC (Staphylococcus aureus [9]): 16 µM (≈ 17.3 µg/mL) | MIC (Pseudomonas aeruginosa): 64 µM (≈ 69.3 µg/mL) | MIC (Escherichia coli [10]): 32 µM (≈ 34.7 µg/mL) | Activity (Escherichia coli [11]): Active | Activity (Escherichia coli [12]): Active | Activity [2]: Not Active | Kapp [13]: 4.08 ×10⁻³ /s

SMILES: CC(C)(NC(=O)c1ccc(OP(=O)(O)O)cc1)C(=O)NC(C)(C)C(=O)NC(C)(C)C(=O)NC(C)(C)C(=O)NC(C)(C)C(=O)NC(C)(C)C(=O)NC(C)(C)C(=O)NC(C)(C)C(=O)NCCOCCOCCOCCOCCOCCN (X1-[Aib][Aib][Aib][Aib][Aib][Aib][Aib][Aib]-{HN(CH2CH2O)5CH2CH2NH})
Kapp [1]: 7.71 ×10⁻³ /s | Kapp [3]: 1.78 ×10⁻² /s | Kapp [4]: 2.59 ×10⁻² /s | Kapp [5]: 4.89 ×10⁻² /s | Activity [7]: inactive | MIC (Cryptococcus neoformans): > 128 µM | MIC (Candida albicans): > 128 µM | MIC (Staphylococcus aureus [8]): > 128 µM | MIC (Staphylococcus aureus [9]): > 128 µM | MIC (Pseudomonas aeruginosa): > 128 µM | MIC (Escherichia coli [10]): > 128 µM | Activity (Escherichia coli [14]): inactive | Activity (Escherichia coli [15]): inactive | Kapp [16]: 0.0017 min⁻¹ | Kapp [17]: 0.0037 min⁻¹ | Kapp [2]: 0.0063 min⁻¹ | Kapp [18]: 0.0078 min⁻¹ | Kapp [19]: 0.0102 min⁻¹ | Kapp [20]: 0.015 min⁻¹ | Kapp [13]: 4.96 ×10⁻³ /s

MIC (Candida albicans): 4 µM (≈ 2.51 µg/mL) | MIC (Staphylococcus aureus [9]): 1 µM (≈ 0.628 µg/mL) | MIC (Pseudomonas aeruginosa): 4 µM (≈ 2.51 µg/mL) | MIC (Escherichia coli [10]): 1 µM (≈ 0.628 µg/mL)
SMILES: CC(C)[C@@H](CC[C@@H](C)[C@H]1CC[C@H]2[C@@H]3[C@H](O)C[C@H]4C[C@@H](NCCCNCCCCN)CC[C@]4(C)[C@H]3CC[C@]12C)OS(=O)(=O)O [SQUALAMINE]
